According to article PMC12163085, “Targeting transcription factors through an IMiD independent zinc finger domain” (EMBO Molecular Medicine, 2025):
Each block holds one molecule with its values, some of them ahead of it.

Assays:
[1] = test system: SNU398; assay: cells; set-up: species or system SNU387, SNU398 and SNU387 isogenic lines; CellTiter-Glo luminescence viability dose response in 384-well plates, nonlinear regression; conditions: Homo sapiens, SNU-398; 72 h cell viability; read-out: EC50 / SNU398Hi
Procedure: (§1) Empty vector, SALL4A, and SALL4B expressing isogenic cell lines were generated by transducing the SALL4 negative hepatocellular carcinoma SNU-387 cells with empty vector, SALL4A, or SALL4B FUW-Luc-mCh-puro lentiviral constructs. Cells were plated in 50 μl of RPMI culture media in 384-well white flat-bottom plates (Corning) and incubated at 37 °C in a humidified atmosphere of 5% CO2 overnight. Cell numbers per well were 1500 for SNU-398, and 750 for SNU-387 and SNU-387 isogenic lines. After overnight incubation, varying concentrations of compounds 1–80 were added to cells with multichannel electronic pipettes (Rainin). Cells were then incubated for 72 h at 37 °C in a humidified atmosphere of 5% CO2 before 10 μl of CellTiter-Glo reagent was added to the wells with the MultiFlo Microplate Dispenser (BioTek). Cells were incubated at room temperature for a minimum of 10 min, after which luminescence readings were recorded by an Infinite M1000 Microplate Reader (Tecan). Each data point was performed in n = 3 independent cell cultures. IC50 of compounds were determined using nonlinear regression fitting from Prism (GraphPad). Cell-based screening was next employed to evaluate the growth inhibitory activity of the test compounds against SALL4 expressing malignant cells. SNU398, a liver cancer cell line with high endogenous levels of SALL4, and SNU387, a liver cancer cell line with undetectable levels of SALL4, were used for comparison. Cells were incubated with the test compound at 1 μM for 72 h, after which cell viability was assessed. […] Next, we carried out dose escalation studies on all SH compounds to deduce their EC50 values on SNU387 and SNU398. In order to interrogate the effects of compounds targeting SALL4, we created isogenic cells by overexpressing SALL4A (SNU387-TgSALL4A) or SALL4B (SNU387-TgSALL4B) in SNU387 cells (Tan et al, [2019]) (Fig. 2B, and Dataset EV4). The EC50 of SH2, SH6, and SH7 in SALL4 high SNU398 cells were 0.4 μM, 0.5 μM, and 0.3 μM, respectively. In contrast, the EC50 values of the same compounds were more than 10 μM on SALL4 low SNU387 cells.

[2] = test system: T1, SNU387-TgSALL4B; assay: cells; set-up: species or system SNU398 and SNU387 isogenic lines; CellTiter-Glo luminescence viability dose response in 384-well plates, nonlinear regression; conditions: 72 h cell viability; read-out: EC50 / SNU387-TgSALL4BBHi
T1 construct: SNU387 overexpressing SALL4B (FUW-Luc-mCh-puro)
Procedure: as §1

[3] = test system: T2, SNU387-Ev (SNU387 transduced with empty vector); assay: cells; set-up: species or system SNU398 and SNU387 isogenic lines; CellTiter-Glo luminescence viability dose response in 384-well plates, nonlinear regression; conditions: Homo sapiens, SNU-387; 72 h cell viability; read-out: EC50 / SNU387-EvLo
T2 construct: empty vector FUW-Luc-mCh-puro
Procedure: as §1

[4] = test system: T3, SNU387-TgSALL4A; assay: cells; set-up: species or system SNU398 and SNU387 isogenic lines; CellTiter-Glo luminescence viability dose response in 384-well plates, nonlinear regression; conditions: 72 h cell viability; read-out: EC50 / SNU387-TgSALL4AAHi
T3 construct: SNU387 overexpressing SALL4A (FUW-Luc-mCh-puro)
Procedure: as §1

[5] = test system: SNU387; assay: cells; set-up: species or system SNU398 and SNU387 isogenic lines; CellTiter-Glo luminescence viability dose response in 384-well plates, nonlinear regression; conditions: Homo sapiens, SNU-387; 72 h cell viability; read-out: EC50 / SNU387Lo
Procedure: as §1

[6] = biological target: T4, hERG potassium channel (Homo sapiens, UniProt Q12809); assay: hERG channel block concentration-response; assay type: cell-based
T4 construct: gene KCNH2

[7] = biological target: T5, CUL4A (Homo sapiens, UniProt Q13619); assay: SPR (Biacore, immobilized CUL4A); supported by in-cell CETSA; assay type: binding
T5 construct: Recombinant CUL4A (Creative Biomart CUL4A-690H)

[8] = biological target: T6, CRBN (cereblon) (Homo sapiens, UniProt Q96SW2); assay: in-cell CETSA only ([…] SH6); assay type: cell-based
T6 construct: endogenous CRBN in SNU398 cells

[9] = test system: T7, SNU387-TgSALL4AAHi; assay: cells; set-up: species or system SNU-387, SNU-398 and SNU-387 isogenic lines; CellTiter-Glo luminescence cell viability, dose-response EC50; conditions: 72 h
T7 construct: SNU-387 overexpressing SALL4A
Procedure: as §1

[10] = test system: T8, SNU387-EvLo; assay: cells; set-up: species or system SNU-387, SNU-398 and SNU-387 isogenic lines; CellTiter-Glo luminescence cell viability, dose-response EC50; conditions: 72 h
T8 construct: SNU-387 empty vector control
Procedure: as §1

[11] = test system: T9, SNU398Hi; assay: cells; set-up: species or system SNU-387, SNU-398 and SNU-387 isogenic lines; CellTiter-Glo luminescence cell viability, dose-response EC50; conditions: 72 h
T9 construct: SNU-398 hepatocellular carcinoma, SALL4 high
Procedure: as §1

[12] = test system: T10, SNU387-TgSALL4BBHi; assay: cells; set-up: species or system SNU-387, SNU-398 and SNU-387 isogenic lines; CellTiter-Glo luminescence cell viability, dose-response EC50; conditions: 72 h
T10 construct: SNU-387 overexpressing SALL4B
Procedure: as §1

[13] = test system: T11, SNU387Lo; assay: cells; set-up: species or system SNU-387, SNU-398 and SNU-387 isogenic lines; CellTiter-Glo luminescence cell viability, dose-response EC50; conditions: 72 h
T11 construct: SNU-387 hepatocellular carcinoma, SALL4 low
Procedure: as §1

[14] = biological target: T12, SALL4 ZFC4 (human, UniProt Q9UJQ4); assay: X-ray crystallography (2.1 A); Zn2+; 500 uM protein with 750 uM DNA; Crystallization: protein in 20 mM HEPES pH 7.5, 200 mM NaCl, 0.5 mM TCEP, 1 mM DTT, 10 uM ZnCl2; mixed with equal volume of 30% PEG3350, 0.04 M NH4SO4, BisTris; conditions: protein: recombinant; tags: N-terminal GST, removed with thrombin (pGEX4T1); chain copies: 2; blunt
T12 sequence: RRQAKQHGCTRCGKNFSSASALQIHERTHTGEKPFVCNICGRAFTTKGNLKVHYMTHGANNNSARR

T4 sequence (Q12809 whole entry): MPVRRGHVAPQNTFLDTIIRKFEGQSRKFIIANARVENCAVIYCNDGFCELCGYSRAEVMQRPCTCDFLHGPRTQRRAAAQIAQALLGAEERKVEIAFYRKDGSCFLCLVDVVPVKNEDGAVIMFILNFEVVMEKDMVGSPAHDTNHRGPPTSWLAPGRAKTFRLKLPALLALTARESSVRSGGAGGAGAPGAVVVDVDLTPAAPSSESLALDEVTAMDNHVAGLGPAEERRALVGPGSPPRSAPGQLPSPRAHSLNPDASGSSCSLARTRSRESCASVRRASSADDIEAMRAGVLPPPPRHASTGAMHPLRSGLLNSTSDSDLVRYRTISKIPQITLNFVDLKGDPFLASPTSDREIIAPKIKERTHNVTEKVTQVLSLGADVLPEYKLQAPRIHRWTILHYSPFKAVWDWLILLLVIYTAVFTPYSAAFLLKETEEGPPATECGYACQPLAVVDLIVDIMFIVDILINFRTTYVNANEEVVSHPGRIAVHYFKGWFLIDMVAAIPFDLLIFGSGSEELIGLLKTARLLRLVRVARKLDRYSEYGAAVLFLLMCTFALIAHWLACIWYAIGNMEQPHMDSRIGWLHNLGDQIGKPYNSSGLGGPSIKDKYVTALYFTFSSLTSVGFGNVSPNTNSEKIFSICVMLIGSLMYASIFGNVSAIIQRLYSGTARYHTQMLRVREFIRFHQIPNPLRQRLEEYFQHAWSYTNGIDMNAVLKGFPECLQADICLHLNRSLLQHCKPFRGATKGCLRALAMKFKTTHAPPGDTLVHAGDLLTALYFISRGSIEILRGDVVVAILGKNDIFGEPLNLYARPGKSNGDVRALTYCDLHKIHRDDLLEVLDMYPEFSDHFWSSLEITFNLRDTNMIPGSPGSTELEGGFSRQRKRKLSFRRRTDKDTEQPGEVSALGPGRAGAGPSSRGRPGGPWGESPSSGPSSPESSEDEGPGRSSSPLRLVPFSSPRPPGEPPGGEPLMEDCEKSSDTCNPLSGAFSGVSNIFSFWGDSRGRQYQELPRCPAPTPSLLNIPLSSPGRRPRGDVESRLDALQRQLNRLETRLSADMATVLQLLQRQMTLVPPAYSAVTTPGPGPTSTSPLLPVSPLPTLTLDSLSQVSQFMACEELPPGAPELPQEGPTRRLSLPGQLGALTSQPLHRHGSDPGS
T6 sequence (Q96SW2 whole entry): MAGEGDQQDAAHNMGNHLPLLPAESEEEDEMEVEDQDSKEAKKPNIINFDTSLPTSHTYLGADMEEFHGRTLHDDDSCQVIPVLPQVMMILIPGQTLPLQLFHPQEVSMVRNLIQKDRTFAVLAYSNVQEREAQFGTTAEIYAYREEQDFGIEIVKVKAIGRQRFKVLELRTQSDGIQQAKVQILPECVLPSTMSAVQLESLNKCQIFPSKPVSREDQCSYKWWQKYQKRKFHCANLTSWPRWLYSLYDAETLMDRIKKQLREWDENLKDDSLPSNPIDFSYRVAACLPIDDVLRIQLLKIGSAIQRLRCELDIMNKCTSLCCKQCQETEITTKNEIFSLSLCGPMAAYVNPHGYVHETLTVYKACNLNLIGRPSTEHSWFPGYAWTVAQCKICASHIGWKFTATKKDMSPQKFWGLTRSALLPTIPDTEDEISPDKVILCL
T5 sequence (Q13619 whole entry): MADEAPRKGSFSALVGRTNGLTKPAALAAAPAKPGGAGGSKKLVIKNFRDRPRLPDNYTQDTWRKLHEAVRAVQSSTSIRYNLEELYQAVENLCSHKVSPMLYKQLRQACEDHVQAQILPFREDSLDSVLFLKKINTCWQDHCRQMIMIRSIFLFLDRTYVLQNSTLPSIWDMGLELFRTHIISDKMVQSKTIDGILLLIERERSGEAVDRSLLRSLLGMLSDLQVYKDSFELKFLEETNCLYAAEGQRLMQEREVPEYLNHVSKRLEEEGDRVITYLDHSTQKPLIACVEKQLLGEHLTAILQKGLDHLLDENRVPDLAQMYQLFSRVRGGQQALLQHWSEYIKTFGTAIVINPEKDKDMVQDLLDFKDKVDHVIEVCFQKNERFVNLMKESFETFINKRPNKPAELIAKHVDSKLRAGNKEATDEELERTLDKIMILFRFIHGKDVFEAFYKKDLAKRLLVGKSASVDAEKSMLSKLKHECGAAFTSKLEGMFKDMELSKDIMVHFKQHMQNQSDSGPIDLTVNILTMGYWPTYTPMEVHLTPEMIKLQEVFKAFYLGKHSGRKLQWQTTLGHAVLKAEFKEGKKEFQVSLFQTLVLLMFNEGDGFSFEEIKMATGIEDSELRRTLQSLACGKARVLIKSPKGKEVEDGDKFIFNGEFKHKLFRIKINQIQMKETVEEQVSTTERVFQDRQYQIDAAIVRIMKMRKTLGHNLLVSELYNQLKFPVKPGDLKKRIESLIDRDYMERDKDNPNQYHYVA

Molecule: COc1ccc(N)c(NC(=O)/C=C/c2cccnc2Nc2cc(OC)c(OC)c(OC)c2)c1 [SH2]
- EC50 [1]: 0.4 µM
- EC50 [2]: 0.4 µM
- EC50 [3]: > 10 µM
- EC50 [4]: 1.3 µM
- EC50 [5]: > 30 µM

Molecule: COc1cc(Nc2ncccc2/C=C/C(=O)Nc2ccc(Cl)cc2N)cc(OC)c1OC [SH6, (2E)-N-(2-amino-4-chlorophenyl)-3-[2-(3,4,5-trimethoxyanilino)pyridin-3-yl] prop-2-enamide]
- IC50 [6]: 22.2 µM
- Kd [7]: ~89 µM
- in-cell CETSA only (50 μM SH6) [8]: higher thermal stability (less unfolding) of CUL4, CRBN, and SALL4 (Fig. 3F), implicating these proteins as binding partners of SH6

Molecule: Cc1cc(N)c(NC(=O)c2cccnc2Nc2ccc(Cl)cc2)cc1C [SH76]
- EC50 [1]: ~30 µM
- EC50 [5]: > 30 µM

Molecule: Nc1cc(Cl)c(Cl)cc1NC(=O)c1cccnc1Nc1ccc(Cl)cc1 [SH79]
- EC50 [1]: ~20 µM
- EC50 [5]: > 30 µM

B1: 12-mer TATTA SALL4 motif duplex (dsDNA)
DNA 1: CGAAATATTAGC
DNA 2: GCTAATATTTCG
- binding result [14]: binds

Next, values leading:

- EC50 [1]: 0.3 µM
- EC50 [2]: 0.3 µM
- EC50 [3]: > 10 µM
- EC50 [4]: 1 µM
- EC50 [5]: ~30 µM
Molecule: COc1cc(Nc2ncccc2/C=C/C(=O)Nc2cc(Cl)c(Cl)cc2N)cc(OC)c1OC [SH7]

- EC50 [9]: > 10 µM
- EC50 [10]: > 10 µM
- EC50 [11]: > 30 µM
- EC50 [12]: > 10 µM
- EC50 [13]: > 30 µM
Molecule: Nc1ccc(F)cc1NC(=O)c1cccnc1Nc1ccc(F)cc1 [SH61]

- EC50 [1]: ~25 µM
- EC50 [5]: > 30 µM
Molecule: Nc1ccc(F)cc1NC(=O)c1cccnc1Nc1ccc(Cl)cc1 [SH77]

- EC50 [1]: ~25 µM
- EC50 [5]: > 30 µM
Molecule: Nc1ccc(Cl)cc1NC(=O)c1cccnc1Nc1ccc(Cl)cc1 [SH78]

- EC50 [1]: > 30 µM
- EC50 [5]: > 30 µM
Molecule: O=C(NO)c1cccnc1Nc1ccc(Cl)cc1 [SH80]
